Test results from US20260250318A1, “COMPOSITIONS AND METHODS FOR CROSSING THE BLOOD BRAIN BARRIER” (VOYAGER THERAPEUTICS, INC., priority 2022, published 2026).

How the values were obtained:
Details in all cases: synthetic library passage 3, intravenous, relative to wild-type AAV9
[1] = system: brain, spinal cord, and DRG of the NHPs; assay: NGS fold enrichment of synthetic library (passage 3) in NHPs, first cross-species screen; assay type: in vivo, cynomolgus macaques (Macaca fascicularis)
Method in brief: (§1)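 Synthetic capsid library (passage 3) was given intravenously […] to NHPs aged 2-4 years and to BALB/c and C57Bl/6 mice (n=3 each, 6-8 weeks). After about 28 days in vivo, tissue RNA was RT-PCR amplified and NGS-sequenced; values are fold enrichment per variant relative to wild-type AAV9.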

brain [2] = assay: NGS fold enrichment of synthetic library (passage 3) in BALB/c mice, first cross-species screen; assay type: in vivo
Method in brief: as §1

brain [3] = assay: NGS fold enrichment of synthetic library (passage 3) in C57Bl/6 mice, first cross-species screen; assay type: in vivo
Method in brief: as §1

[4] = RNA from spinal cord of NHPs, NGS
[5] = RNA from brain of BALB/c mice, NGS
[6] = RNA from brain of C57Bl/6 mice, NGS

| Sequence | Fold enrichment over AAV9 in the brain of NHPs ([1]; RNA NGS, brain of NHPs) [fold] | Fold enrichment over AAV9 in the spinal cord of NHPs ([1]; RNA NGS, spinal cord of NHPs) [fold] | Fold enrichment over AAV9 in the brain of Mice (BALB/c) (brain [2]; RNA NGS, brain of BALB/c mice) [fold] | Fold enrichment over AAV9 in the brain of Mice (C57Bl/6) (brain [3]; RNA NGS, brain of C57Bl/6 mice) [fold] | Fold enrichment over AAV9 in the brain of NHPs ([1]; RNA from brain of NHPs, NGS) [fold] | Fold enrichment over AAV9 in the spinal cord of NHPs [1, 4] [fold] | Fold enrichment over AAV9 in the brain of Mice (BALB/c) (brain [2]; [5]) [fold] | Fold enrichment over AAV9 in the brain of Mice (C57Bl/6) (brain [3]; [6]) [fold] |
| --- | --- | --- | --- | --- | --- | --- | --- | --- |
| GSGHSIRTDQNQQT | 3.074 | 15.600 | 0.148 | 0.229 | – | – | – | – |
| GSDHSHRGGQNQQT | – | – | – | – | 1.174 | 0.504 | 0.331 | 0.818 |
| GSGAVHLTAQNQQT | – | – | – | – | 1.306 | 1.668 | 0.466 | 0.541 |
| GSGEKVHSGQNQQT | – | – | – | – | 1.289 | 0.062 | 0.671 | 0.862 |
| GSSGSHQYGQNQQT | – | – | – | – | 1.155 | 0.000 | 0.794 | 1.129 |
| GSGQNQQVLTTART | 1.434 | 4.142 | 0.948 | 1.071 | – | – | – | – |
| GSGQNQRSSGGVQT | 1.723 | 2.056 | 1.165 | 1.805 | – | – | – | – |
| GSGVSTQLLQNQQT | – | – | – | – | 1.367 | 2.467 | 0.509 | 0.928 |
| GRGQNQQHTGLATT | 1.650 | 6.174 | 0.691 | 1.134 | – | – | – | – |
| GSGQGIHSSVNQQT | 1.981 | 4.873 | 0.634 | 0.632 | – | – | – | – |
| GSGQNTGHLTMQQT | 1.114 | 0.078 | 0.595 | 1.026 | – | – | – | – |
| GSGQNQQIISTKIT | – | – | – | – | 1.275 | 0.000 | 0.710 | 0.951 |
| GSGMSPSTLQNQQT | 2.216 | 3.053 | 0.153 | 0.318 | – | – | – | – |
| GSGSPHVRMQNQQT | 11.574 | 6.764 | 10.076 | 9.121 | – | – | – | – |
| GSGQNQAGHGPGQT | 1.670 | 2.861 | 0.887 | 1.040 | – | – | – | – |
| GSSTRVDSGQNQQT | 1.584 | 2.774 | 0.660 | 0.704 | – | – | – | – |
